# From patent US5622839A (ZymoGenetics, Inc., priority 1995, dated 1997)
# Assays:
# [1] = molecular target: T1, human calcitonin receptor (Homo sapiens, UniProt P30988); test: [Ca2+]i response of BHK cells expressing cloned calcitonin receptor to calcitonin and extracellular calcium (fura-2); assay type: cell-based; conditions: for average peak [Ca2+]i response vs receptor number: each cell line expressing the calcitonin receptor
# T1 construct: Hollex encoded a protein of 474 amino acids; expressed in transfected cells; host or cells: BHK 570 / BHK/KZ10-20-48 (baby hamster kidney) stably transfected with pHollex
# T1 sequence (P30988 25-474): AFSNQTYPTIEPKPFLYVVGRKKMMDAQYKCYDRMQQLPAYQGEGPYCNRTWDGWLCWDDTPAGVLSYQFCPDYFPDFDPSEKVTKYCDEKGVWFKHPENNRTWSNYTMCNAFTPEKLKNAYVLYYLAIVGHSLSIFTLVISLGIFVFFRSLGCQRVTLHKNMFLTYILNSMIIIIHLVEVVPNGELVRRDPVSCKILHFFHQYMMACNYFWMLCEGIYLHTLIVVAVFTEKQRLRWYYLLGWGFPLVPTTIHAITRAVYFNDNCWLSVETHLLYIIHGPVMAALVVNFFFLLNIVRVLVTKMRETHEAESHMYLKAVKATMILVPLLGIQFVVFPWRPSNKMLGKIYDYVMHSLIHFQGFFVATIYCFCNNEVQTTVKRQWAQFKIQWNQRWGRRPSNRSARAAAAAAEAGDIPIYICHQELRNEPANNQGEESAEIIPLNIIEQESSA
# Method: (§1) BHK cells expressing the cloned calcitonin receptor were assayed to determine their response to extracellular calcium. Cells were washed three times with a buffer (140 mM NaCl, 5 mM KCl, 0.5 mM MgCl2, 0.5 mM CaCl2 (concentration varied in some experiments), 10 mM glucose, 10 mM HEPES, pH 7.4) made using high purity salts (Aldrich, Milwaukee, Wis.) and sterile water (Baxter, McGaw Park, Ill.). Cells were loaded with fura-2 AM (Molecular Probes Inc.) (10 μg/ml) for 30 minutes essentially as described above, then washed an additional three times. Slides were mounted at room temperature on an inverted microscope (EPIPHOT, Nikon), and a field of cells (typically 20-30 cells) was located using a 40× Nikon fluor objective. The ratio of fura-2 emission at excitation wavelengths of 340 and 380 nm was recorded every 5 seconds. Individual cells were analyzed on a computer workstation (Sun Microsystems) using a software system designed for ratio imaging (Inovision). The concentration of calcium chloride in buffers was determined by comparison to calcium standards on a calcium analyzer (Nova Biomedical Corp. Waltham, Mass.). All experiments were reproduced three to eight times. Fura-2 ratio 340 nm to 380 nm values (R) were converted to [Ca^2+ ]i concentrations after calibration of the instrument using the formula: calcium (nm)=2240[R-0.3)/(20-R)]. Basal [Ca^2+ ]i concentrations were typically 80-150 nm. The peak fura-2 ratios 340/380 of individual cells exposed to 20 nm salmon calcitonin followed by 25 mM calcium chloride were averaged for some experiments and converted to [Ca^2+ ]i concentrations. Standard error was calculated at a 99% level using a Z score of 2.58 (n>30).
# Control BHK cell lines = test: [Ca2+]i response of control (calcitonin receptor-negative) BHK cells to extracellular calcium; assay type: cell-based, baby hamster
# Method: as §1, with “Fura-2 ratio 340 nm to 380 nm values (R) were converted to [Ca^2+ ]i concentrations after calibration of the instrument using the formula: calcium (nm)=2240[R-0.3)/(20-R)]. Basal [Ca^2+ ]i concentrations were typically 80-150 nm. The peak fura-2 ratios 340/380 of individual cells exposed to 20 nm salmon calcitonin followed by 25 mM calcium chloride were averaged for some experiments and converted to [Ca^2+ ]i concentrations.” left out
# [2] = molecular target: T1, human calcitonin receptor; test: Intracellular calcium response of Hollex1/Hollex2 cells (fura-2 imaging); assay type: cell-based
# bone resorption = conditions: patients given long term treatment; Azria 1989; cited from earlier work
# BHK/Zem228R = test: Binding/competition assay with BHK/Zem228R cells (negative control); set-up: species or system baby hamster
# Method: A pool of transfectants expressing the plaex 1 was tested for receptor-mediated binding to calcitonin using a competition assay. Hollex1 was used as a positive control and BHK cells transfected with Zem228R were used as a negative control.
# The cells were plated at a density of 1×10^5 cells/well in a 24-well cell culture dish and allowed to grow for 48 hours at 37° C. and 5% CO2 in growth medium (described in previous examples). The cells were rinsed in binding medium as described in Example IIE. Three hundred microliters of hot binding medium containing 10 nM hCT and 5 μCi/ml ^125 I hCT. Cold competition was achieved by adding unlabelled hCT to a final concentration of 1 μM were added to appropriate wells. The cells were incubated 1.5 hours at room temperature. Unincorporated radioactivity was removed by three washes with PBS. Five hundred microliters of 1N NaOH was added to each well to solublize the cells. Each sample was counted on a gamma counter.
# [3] = 25 mM extracellular calcium chloride, about 700,000 receptors/cell
# [4] = cell lines expressing 100,000 and 150,000 receptors/cell
compound,measurement,setting,value
[Cl-].[K+] [KCl],[Ca2+]i response to 73 mM KCl,"[1]; instead of CaCl2, about 700,000 receptors/cell",no effect
[Ca+2].[Cl-].[Cl-] [calcium chloride],magnitude of [Ca2+]i response relative to that induced by calcitonin,[1]; [3],comparable to that induced by calcitonin
same,time for response to return to an elevated basal level,[1]; [3],about 20 minutes
same,effect of calcitonin pretreatment on magnitude of response to extracellular calcium,"[1]; 25 mM, about 700,000 receptors/cell, p<0.01",not significantly altered
same,concentration of maximum response,"[1]; 700,000 receptors/cell",approximately 14 mM
same,EC50,"[1]; 700,000 receptors/cell, double reciprocal plot, read-out: effective concentration for half-maximal response",8 to 10 mM
same,smallest increase in extracellular calcium giving a significant response,"[1]; 700,000 receptors/cell, increase over basal (1.3 mM)",2 mM
same,[Ca2+]i response to millimolar increases in extracellular calcium,[1]; BHK cells expressing recombinant calcitonin receptor,rapid and sustained elevation in [Ca^2+ ]i
same,[Ca2+]i response to 25 mM extracellular calcium for two minutes followed by continuous wash,"[1]; about 700,000 receptors/cell",rapid and transient increase in [Ca^2+ ]i
same,[Ca2+]i response to 25 mM extracellular calcium chloride,"[1]; about 700,000 receptors/cell, with or without calcitonin pretreatment",rapid and sustained increase in [Ca2+ ]i
same,[Ca2+]i response,[1]; [4],increases in [Ca^2+ ]i
same,average peak [Ca2+]i response vs receptor number,[1],proportional to the average number of receptors per cell
same,response to extracellular calcium,Control BHK cell lines; Control BHK cell lines,no response
same,sensitivity to changes in extracellular calcium,Control BHK cell lines; three calcitonin receptor-negative BHK cell lines,no sensitivity
calcitonin,cells with a calcium response,[2]; Hollex1 cells,30-70%
same,cells with a calcium response,[2]; Hollex2 cells,1-5%
same,[Ca2+]i response,[1]; [4],increases in [Ca^2+ ]i
same,effect of calcitonin pretreatment on response to extracellular calcium,[1]; [4],marked potentiation
same,average peak [Ca2+]i response vs receptor number,[1],proportional to the average number of receptors per cell
same,resistance cases not accompanied with antibody formation,bone resorption,approximately 50%
"human calcitonin: human calcitonin (hCT), natural peptide hormone ligand of the calcitonin receptor",hot,BHK/Zem228R; 10 nM hCT and 5 μCi/ml 125I hCT,147 cpm
same,hot/cold,BHK/Zem228R; plus unlabelled hCT 1 μM,105 cpm
